Laboratory results as given in ChEMBL document CHEMBL5726081, “Therapeutic inhibitory compounds” (2017).

Target: Plasma kallikrein (Homo sapiens, UniProt P03952)
Assay: In Vitro Enzyme Inhibition Assay: The ability of the compounds disclosed herein to inhibit human plasma kallikrein activity was quantified according to the procedures below.A 10 mM solution of the test compound was made in DMSO. […] A control tube containing only DMSO is included. […] 50 μL was removed from this mixture and placed into duplicate wells on a Microfluor 1Black U-bottom microtiter plate (Thermo Scientific). This plate was incubated for 5 minutes at 37° C. To each well, 50 μL of pre-warmed 2×PFR-AMC was added to start the enzymatic reaction. Cleavage of PFR-AMC was monitored in a Biotek Synergy H4 reader set at 37° C. Readings are taken every 43 seconds for 1 hour.

Plasma kallikrein, sequence (P03952 20-390 limits assumed): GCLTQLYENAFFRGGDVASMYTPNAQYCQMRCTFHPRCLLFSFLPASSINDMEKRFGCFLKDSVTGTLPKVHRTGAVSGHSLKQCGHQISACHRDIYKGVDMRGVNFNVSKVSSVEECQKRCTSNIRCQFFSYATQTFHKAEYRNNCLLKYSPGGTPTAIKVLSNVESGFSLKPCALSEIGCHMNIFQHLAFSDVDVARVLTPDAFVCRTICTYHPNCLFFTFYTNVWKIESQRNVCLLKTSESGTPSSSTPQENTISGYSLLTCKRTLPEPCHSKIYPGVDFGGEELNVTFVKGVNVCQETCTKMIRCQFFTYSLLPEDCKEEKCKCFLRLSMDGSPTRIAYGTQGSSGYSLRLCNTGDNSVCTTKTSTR
Plasma kallikrein, sequence (P03952 391-638 limits assumed): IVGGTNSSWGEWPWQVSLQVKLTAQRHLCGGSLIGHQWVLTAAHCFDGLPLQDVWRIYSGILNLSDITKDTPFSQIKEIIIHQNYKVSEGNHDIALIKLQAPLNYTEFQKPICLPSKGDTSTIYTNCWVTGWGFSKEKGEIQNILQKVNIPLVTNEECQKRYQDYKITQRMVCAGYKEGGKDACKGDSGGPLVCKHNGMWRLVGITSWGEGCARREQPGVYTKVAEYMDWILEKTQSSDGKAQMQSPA

In the case of `Cc1nc(N)ccc1CNC(=O)c1ccnc(Cc2cc(C#N)c3ncc(Cl)cc3c2)c1`, the IC50 is reported as less than 100 nM.

`N#Cc1ccc2cc(Cc3cc(C(=O)NCc4cc5c(Cl)c[nH]c5cc4F)ccn3)ccc2n1` showed an IC50 of less than 100 nM.
